According to patent US8841321B2, “Quinoline derivatives as antibacterial agents” (Janssen Pharmaceutica NV, priority 2005, dated 2014):
Values after ≈ are worked out from the molar mass of the structure shown.

Legend:
Experiment in all cases: Microtitre plate assay, IC90 determination
Format in all cases: cell-based
[1] = tested on: SPN 6305 (Streptococcus pneumoniae (ATCC6305)); conditions: Streptococcus pneumoniae (ATCC6305)
Method in brief: (§1)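 Growth-inhibition endpoint: resazurin added 3 h after inoculation, plates incubated overnight, fluorescence at 530/590 nm after 24 h at 37 °C. Inocula of roughly 10–60 CFU per well in Mueller-Hinton medium; compounds titrated five-fold. IC90 reported as μg/ml.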

[2] = tested on: STA 29213 (Staphylococcus aureus (ATCC29213)); conditions: for IC90 (μg/ml) STA 29213: Staphylococcus aureus (ATCC29213)
Method in brief: as §1

[3] = tested on: BSU 43639 (Bacillus subtilis (ATCC43639)); conditions: for IC90: Bacillus subtilis, ATCC43639, Bacillus subtilis (ATCC43639), read-out: IC90 (μg/ml) BSU 43639; for IC90 (μg/ml) BSU 43639: Bacillus subtilis (ATCC43639)
[4] = tested on: EFA 29212 (Enterococcus faecalis (ATCC29212)); conditions: for IC90: Enterococcus faecalis, ATCC29212, Enterococcus faecalis (ATCC29212), read-out: IC90 (μg/ml) EFA 29212; for IC90 (μg/ml) EFA 29212: Enterococcus faecalis (ATCC29212)
[5] = tested on: LMO 49594 (Listeria monocytogenes (ATCC49594)); conditions: for IC90: Listeria monocytogenes, ATCC49594, Listeria monocytogenes (ATCC49594), read-out: IC90 (μg/ml) LMO 49594; for IC90 (μg/ml) LMO 49594: Listeria monocytogenes (ATCC49594)
[6] = tested on: PAE 27853 (Pseudomonas aeruginosa (ATCC27853)); conditions: for IC90 (μg/ml) PAE 27853: Pseudomonas aeruginosa (ATCC27853)
[7] = tested on: SPY 8668 (Streptococcus pyogens (ATCC8668)); conditions: for IC90: Streptococcus, ATCC8668, Streptococcus pyogens (ATCC8668), read-out: IC90 (μg/ml) SPY 8668; for IC90 (μg/ml) SPY 8668: Streptococcus pyogens (ATCC8668)
[8] = tested on: STA 25923 (Staphylococcus aureus (ATCC25923)); conditions: for IC90 (μg/ml) STA 25923: Staphylococcus aureus (ATCC25923)
[9] = tested on: STA RMETH (methicilline resistant Staphylococcus aureus (MRSA), a clinical isolate from the University of Antwerp)

SMILES	IC90 (μg/ml) SPN 6305 [1]	IC90 (μg/ml) STA 29213 [2]	IC90 [3]	IC90 [4]	IC90 [5]	IC90 (μg/ml) PAE 27853 [6]	IC90 [7]	IC90 ([8]; Staphylococcus aureus, ATCC25923, Staphylococcus aureus (ATCC25923), read-out: IC90 (μg/ml) STA 25923)	IC90 ([9]; Staphylococcus aureus, MRSA, read-out: IC90 (μg/ml) STA RMETH)	IC90 (μg/ml) EFA 29212 [4]	IC90 (μg/ml) SPY 8668 [7]	IC90 (μg/ml) STA RMETH [9]	IC90 (μg/ml) BSU 43639 [3]	IC90 (μg/ml) LMO 49594 [5]	IC90 (μg/ml) STA 25923 [8]	IC90 ([2]; Staphylococcus aureus, ATCC29213, Staphylococcus aureus (ATCC29213), read-out: IC90 (μg/ml) STA 29213)	IC90 ([6]; Pseudomonas aeruginosa, ATCC27853, Pseudomonas aeruginosa (ATCC27853), read-out: IC90 (μg/ml) PAE 27853)
CCN(CC)CCCC(O)(c1ccc2ccccc2c1)C(c1ccccc1)c1cc2cc(Br)ccc2nc1OC (stereo not drawn) [Compound 51]	11.9 µg/mL (≈ 19.9 µM)	59.8 µg/mL (≈ 100 µM)	15 µg/mL (≈ 25.1 µM)	59.8 µg/mL (≈ 100 µM)	15 µg/mL (≈ 25.1 µM)	47.5 µg/mL (≈ 79.5 µM)	13.4 µg/mL (≈ 22.4 µM)	15 µg/mL (≈ 25.1 µM)	15 µg/mL (≈ 25.1 µM)	–	–	–	–	–	–	–	–
CSc1nc2ccc(Br)cc2cc1C(c1ccccc1)C(O)(CCCCN(C)C)c1ccccc1 (stereo not drawn) [Compound 2]	21.9 µg/mL (≈ 39.8 µM)	43.7 µg/mL (≈ 79.5 µM)	43.7 µg/mL (≈ 79.5 µM)	–	43.7 µg/mL (≈ 79.5 µM)	43.7 µg/mL (≈ 79.5 µM)	–	–	–	43.7 µg/mL (≈ 79.5 µM)	8.7 µg/mL (≈ 15.8 µM)	43.7 µg/mL (≈ 79.5 µM)	–	–	–	–	–
COc1nc2ccc(Br)cc2cc1C(c1ccccc1)C(O)(CCCN1CCCC1)c1ccc2ccccc2c1 (racemic) [Compound 48]	59.6 µg/mL (≈ 100 µM)	47.3 µg/mL (≈ 79.4 µM)	–	–	–	47.3 µg/mL (≈ 79.4 µM)	–	–	–	59.6 µg/mL (≈ 100 µM)	47.3 µg/mL (≈ 79.4 µM)	9.4 µg/mL (≈ 15.8 µM)	59.6 µg/mL (≈ 100 µM)	23.7 µg/mL (≈ 39.8 µM)	9.4 µg/mL (≈ 15.8 µM)	–	–
COc1nc2ccc(Br)cc2cc1C(c1ccccc1)C(O)(CCCCN(C)C)c1ccc2cc(Br)ccc2c1 (stereo not drawn) [Compound 7]	2.4 µg/mL (≈ 3.62 µM)	–	10.5 µg/mL (≈ 15.8 µM)	–	10.5 µg/mL (≈ 15.8 µM)	–	10.5 µg/mL (≈ 15.8 µM)	–	–	10.5 µg/mL (≈ 15.8 µM)	–	10.5 µg/mL (≈ 15.8 µM)	–	–	–	2.1 µg/mL (≈ 3.17 µM)	10.5 µg/mL (≈ 15.8 µM)
COc1nc2ccc(-c3ccccc3)cc2cc1C(c1ccccc1)C(O)(CCCCN(C)C)c1ccc2ccccc2c1 (stereo not drawn) [Compound 41]	9.2 µg/mL (≈ 15.8 µM)	9.2 µg/mL (≈ 15.8 µM)	9.2 µg/mL (≈ 15.8 µM)	–	9.2 µg/mL (≈ 15.8 µM)	36.6 µg/mL (≈ 63 µM)	–	–	–	9.2 µg/mL (≈ 15.8 µM)	9.2 µg/mL (≈ 15.8 µM)	9.2 µg/mL (≈ 15.8 µM)	–	–	–	–	–
COc1nc2ccc(Br)cc2cc1C(c1ccccc1)C(O)(CCCN(C)C)c1ccccc1 (stereo not drawn) [Compound 44]	11.6 µg/mL (≈ 22.3 µM)	10.4 µg/mL (≈ 20 µM)	41.3 µg/mL (≈ 79.5 µM)	26 µg/mL (≈ 50 µM)	–	10.4 µg/mL (≈ 20 µM)	–	–	–	–	9.2 µg/mL (≈ 17.7 µM)	13.1 µg/mL (≈ 25.2 µM)	–	13.1 µg/mL (≈ 25.2 µM)	13.1 µg/mL (≈ 25.2 µM)	–	–
COc1nc2ccc(Br)cc2cc1C(c1ccccc1)C(O)(CCCCN(C)C)c1ccccc1 (stereo not drawn) [Compound 21]	11.9 µg/mL (≈ 22.3 µM)	10.6 µg/mL (≈ 19.9 µM)	–	–	–	10.6 µg/mL (≈ 19.9 µM)	–	–	–	21.2 µg/mL (≈ 39.7 µM)	10.6 µg/mL (≈ 19.9 µM)	10.6 µg/mL (≈ 19.9 µM)	10.6 µg/mL (≈ 19.9 µM)	10.6 µg/mL (≈ 19.9 µM)	10.6 µg/mL (≈ 19.9 µM)	–	–
